Results on 4 compounds are retold here after PMC9570599, “Kribbellichelins A and B, Two New Antibiotics from Kribbella sp. CA-293567 with Activity against Several Human Pathogens” (Molecules, 2022).

One series concerns C. albicans ATCC-64124. In words: Antifungal growth inhibition assay, C. albicans. The format is cell-based, Candida albicans. Particulars: for pIC50: molar value in brackets. How it is done:
(§1) Purification fractions and purified compounds 1–3 and 5 were tested against a wide panel of antimicrobial assays for the growth inhibition of human pathogens including MRSA MB-5393, A. baumannii MB-5973, P. aeruginosa MB-5919, A. fumigatus ATCC-46645, and C. albicans ATCC-64124 as 10-point curves with 1:2 dilutions starting at 128 μg/mL in duplicate, following previously described methodologies. Most of the pathogens were acquired from the American Type Culture Collection (ATCC)(Manassas, VA, USA), except for those already present in our MEDINA bacteria collection (MB). Pathogen panel investigated was selected according to typical reference strains and procedures indicated by the […].
(§2) The antifungal assay was performed following this methodology; briefly, a thawed stock inoculum suspension from a cryovial of A. fumigatus and C. albicans was streaked onto PDA and Sabouraud Dextrose Agar medium, respectively, and suspended in RPMI-1640 modified medium and incubated at 37 °C for 24 h. Spores concentration of A. fumigatus was determined by counting in Neubauer chamber in order to dilute the culture and obtain an assay inoculum of 2.5 × 10^4 spores/mL. For C. albicans, the OD660 was adjusted to 0.25 using RPMI-1640 modified as diluent and blank. Then, a dilution from the adjusted inoculum was prepared at 1/100 to inoculate 96-well assay plates.
(§3) For the assay, 90 μL/well of the diluted inoculum was mixed with 1.6 μL/well of compound dissolved in DMSO and 8.4 μL/well of MHII or BHI medium for Gram-negative and Gram-positive strains, respectively. Vancomycin was included as an internal plate control for MRSA. A rifampicin, aztreonam, and amphotericin B dose-response curve was used as a positive control against P. aeruginosa, A. baumannii and A. fumigatus, and C. albicans, respectively. Each compound was tested as a 10-point dose-response curve by 1:2 serial dilutions in DMSO starting at 128 µg/mL in duplicate. Total growth was measured using the EnVision® (Redwood City, CA, USA) Multilabel plate reader (Perkin Elmer) with two readings, one at initial time and one after which the microorganism was incubated at 37 °C for 18–20 hours. For the A. fumigatus assay, total growth was measured with a single reading after the incubation.

In another series the test system is A. fumigatus ATCC-46645. In words: Antifungal growth inhibition assay, A. fumigatus. The format is cell-based, Aspergillus fumigatus. Particulars: for inhibition at 7.2 µg/mL / IC50: Aspergillus fumigatus; for inhibition at 7.2 µg/mL: at 7.2 µg/mL (optimal concentration), atypical profile, Eagle effect, read-out: maximum inhibition against A. fumigatus; for decreasing inflection point against A. fumigatus: less inhibition at higher concentrations (Eagle effect). The protocol: as §1, §2, §3

For a further series, the system named is MRSA MB-5393. In words: Gram-positive antibacterial growth inhibition assay, MRSA. The format is cell-based, methicillin-resistant Staphylococcus aureus. Particulars: for activity against MRSA (in words): pure compound, up to 128 µg/mL. How it is done:
as §1
For Gram-positive MRSA, a thawed stock inoculum suspension from a cryovial of this microorganism was streaked onto brain heart infusion (BHI) agar plate and incubated at 37 °C overnight to obtain isolated colonies. Single colonies were inoculated into 10 mL of BHI broth medium in 250 mL Erlenmeyer flask and incubated overnight at 37 °C with shaking at 220 rpm and then diluted in order to obtain an assay inoculum of 1.1 × 10^6 CFU/mL [52].
as §3

A further series concerns A. baumannii MB-5973. The series is described as follows: Gram-negative antibacterial growth inhibition assay, A. baumannii. Particulars: for maximum activity of growth inhibition plateau, A. baumannii: at concentrations higher than 10 µg/mL; for activity against A. baumannii (in words): pure compound, up to 128 µg/mL. The format is cell-based, Acinetobacter baumannii. How it is done: as §1
(§4) Gram-negative antibacterial assay was performed following this procedure; thawed stock inoculum from vials was streaked onto MHII agar plates and incubated overnight at 37 °C. Isolated colonies were selected and inoculated in 25 mL of MHII liquid growth medium in 250 mL Erlenmeyer flasks overnight at 37 °C. MHII liquid growth medium was used in a 96-well plate assay, adjusting at 5 × 10^5 colony forming units (cfu)/mL (OD600 nm).
as §3

In another series the test system is P. aeruginosa MB-5919. The series is described as follows: Gram-negative antibacterial growth inhibition assay, P. aeruginosa. The format is cell-based, Pseudomonas aeruginosa. Particulars: for maximum activity of growth inhibition plateau, P. aeruginosa: at concentrations higher than 10 µg/mL; for activity against P. aeruginosa (in words): pure compound, up to 128 µg/mL. The protocol: as §1, §4, §3

For series [1], the system named is human hepatoma cell line HepG2 (ATCC HB-8065). The series is described as follows: MTT cytotoxicity bioassay. The format is cell-based. Particulars: 72 h; for cytotoxicity against HepG2 (in words): up to 40 µg/mL. The protocol: Pure compounds were assayed against the human hepatoma cell line HepG2 (ATCC HB-8065) in an MTT test as 20-point curves with 1:2 dilutions starting at 40 μg/mL in triplicate. Cells were seeded at 10.000 cells/well in a 96-well plate (Corning 96-well TC-treated microplates) for 24 h and after addition of compounds 1–3 and 5 plates were incubated for 72 h. MMS (methylmethanesulfonate, Sigma-Aldrich, 4 mM) was used as the positive control, and DMSO 0.5% as the negative control. After addition of MMT dye (thiazolyl blue tetrazoliumbromide, ACROS Organics), cells were incubated for 2–3 h and supernatant was removed. Resulting formazan crystals were finally dissolved by means of 100 µL DMSO (100%) and absorbance was measured at 570 nm. The obtained data was analyzed using Genedata Screener software (Genedata, Inc., Basel, Switzerland) and Prim 9.4.1 software, from GraphPad was used for titrations representation.

Another series relates to Bacillus subtilis. On the set-up: method as in PMID 8436549. The note with it: previously reported; cited from earlier work.
A further series concerns S. aureus. On the set-up: method as in PMID 8436549. Particulars: previously reported; cited from earlier work.
The next series deals with Streptococcus faecalis. Set-up: method as in PMID 8436549. Particulars: previously reported; cited from earlier work.
The next series deals with Saccharomyces cerevisiae. On the set-up: method as in PMID 28074052. The note with it: previously reported; cited from earlier work.

pIC50: −log10 of the molar value. Values after ≈ are worked out from the molar mass of the structure shown. Values joined by “and” are separate entries in the source; they are usually repeats but may differ in a detail not shown here. Equal values may be shown once. “Also recorded” adds a separate entry of the source. Read-outs that look alike come from different tables or passages of the source.

On to `COC(=O)c1cc(O)c(O)c(C(=O)NCCC(=O)N[C@@H](CCCN(O)C(=O)[C@H](CO)NC(=O)CCNC(=O)c2nc(C(=O)OC)cc(O)c2O)C(=O)O)n1` [Compound 1, kribbellichelin A], for which, in the series with C. albicans ATCC-64124 (C. albicans ATCC-64124, 10-point curve from 128 µg/mL, duplicate), the “IC50 versus C. albicans” value was determined as 11.72 µg/mL (≈ 15.3 µM). The negative logarithm of the IC50 (pIC50) in the series on C. albicans ATCC-64124 (C. albicans ATCC-64124, read-out: IC50 versus C. albicans) is 4.82. Moreover, the concentration for half-maximal inhibition (IC50) in the series on C. albicans ATCC-64124 (Candida albicans, ATCC64124, C. albicans ATCC-64124, 10-point curve from 128 µg/mL, duplicate, read-out: IC50 versus C. albicans) worked out at 11.7 µg/mL. Moreover, in the series on C. albicans ATCC-64124 (Candida albicans, ATCC64124, C. albicans ATCC-64124, read-out: IC50 versus C. albicans), the negative logarithm of the IC50 (pIC50) was 4.82. For the same compound, the inhibition at 7.2 µg/mL with A. fumigatus ATCC-46645 (ATCC46645) came to 40%. The “decreasing inflection point against A. fumigatus” value in the series on A. fumigatus ATCC-46645 is ~50 µg/mL. In the series on MRSA MB-5393, the “activity against MRSA (in words)” value is on record as “no activity”. Also, in the series with A. baumannii MB-5973, the “maximum activity of growth inhibition plateau, A. baumannii” value was found to be 45% and the “activity against A. baumannii (in words)” value was “minor inhibitory properties”. In the series on P. aeruginosa MB-5919, the “maximum activity of growth inhibition plateau, P. aeruginosa” value was 30% and the “activity against P. aeruginosa (in words)” value is “minor inhibitory properties”. Moreover, in series [1], the “cytotoxicity against HepG2 (in words)” value is “nor significant cytotoxic activity; also recorded: no relevant cytotoxicity”.
For the compound `COC(=O)c1cc(O)c(O)c(C(=O)NCCC(=O)N[C@@H](CCCN(O)C(=O)[C@H](CO)NC(=O)CCNC(=O)c2nc(C(=O)OC)cc(O)c2O)C(=O)OC)n1` [Compound 2, kribbellichelin B], the inhibition at 7.2 µg/mL with A. fumigatus ATCC-46645 (ATCC46645) was found to be 40%. In addition, in the series with A. fumigatus ATCC-46645, the “decreasing inflection point against A. fumigatus” value is ~50 µg/mL. Also, the “activity against MRSA (in words)” value with MRSA MB-5393 was “no activity”. Moreover, in the series with A. baumannii MB-5973, the “maximum activity of growth inhibition plateau, A. baumannii” value was found to be 45% and the “activity against A. baumannii (in words)” value is on record as “minor inhibitory properties”. Also, in the series with P. aeruginosa MB-5919, the “maximum activity of growth inhibition plateau, P. aeruginosa” value is recorded as 30% and the “activity against P. aeruginosa (in words)” value is recorded as “minor inhibitory properties”. Further, in series [1], the “cytotoxicity against HepG2 (in words)” value was “nor significant cytotoxic activity; also recorded: no relevant cytotoxicity”.
In the case of `CC(C)[C@H]1C(=O)OC[C@@H](NC(=O)c2nc3ccccc3cc2O)C(=O)N2CCCC[C@H]2C(=O)NCC(=O)N(C)CC(=O)N(C)[C@@H](C(C)C)C(=O)OC[C@@H](NC(=O)c2nc3ccccc3cc2O)C(=O)N2CCCC[C@@H]2C(=O)NCC(=O)N(C)CC(=O)N1C` [Compound 3, sandramycin], the IC50 is 7.55 µg/mL and 6.19 µM with C. albicans ATCC-64124 (Candida albicans, ATCC64124, read-out: IC50 versus C. albicans); 5.72 µg/mL and 4.69 µM with A. fumigatus ATCC-46645 (ATCC46645, read-out: IC50 against A. fumigatus); 0.31 µg/mL and 250 nM in the series on MRSA MB-5393 (Staphylococcus aureus, MRSA, read-out: IC50 versus MRSA MB-5393). The “activity against A. baumannii (in words)” value in the series with A. baumannii MB-5973 is reported as “no antibacterial activity”. In addition, in the series with P. aeruginosa MB-5919, the “activity against P. aeruginosa (in words)” value is given as “no antibacterial activity”. Besides, the “ED50 cytotoxic activity against HepG2” value in series [1] (molar value in brackets) worked out at 0.00129 µM. For the same compound, the “antibiotic activity versus Bacillus subtilis (in words)” value with Bacillus subtilis was “strong antibiotic activity”. Moreover, the “antibiotic activity versus S. aureus (in words)” value with S. aureus is listed as “strong antibiotic activity”. The “antibiotic activity versus Streptococcus faecalis (in words)” value in the series with Streptococcus faecalis is “strong antibiotic activity”.
Take `CC(C)CCCCCCCCCCCCCOC[C@@H](O)CO[C@H]1O[C@H](C(=O)O)[C@@H](O[C@H]2O[C@H](CO)[C@@H](O)[C@H](O)[C@H]2O)[C@H](O)[C@H]1O` [Compound 5, kribelloside C]: the “activity against C. albicans (in words)” value with C. albicans ATCC-64124 (pure compound, up to 128 µg/mL) is “no activity; also recorded: not observed”. For the same compound, in the series with A. fumigatus ATCC-46645 (ATCC46645, A. fumigatus ATCC-46645, read-out: IC50 against A. fumigatus), the half-maximal inhibitory concentration (IC50) is 13.7 µg/mL (≈ 20.8 µM). Moreover, in the series on MRSA MB-5393, the “activity against MRSA (in words)” value was “no activity”. Further, the “activity against A. baumannii (in words)” value in the series on A. baumannii MB-5973 was “no activity”. The “activity against P. aeruginosa (in words)” value in the series on P. aeruginosa MB-5919 was “no activity”. Further, in series [1], the “cytotoxicity against HepG2 (in words)” value was “no relevant cytotoxicity”. The “antifungal activity versus Saccharomyces cerevisiae (in words)” value in the series on Saccharomyces cerevisiae is listed as “interesting activities as an antifungal agent”.

A word on the pIC50: it is −log10 of the IC50, conventionally taken in molar units. As usually defined, the IC50 is the midpoint of a concentration-inhibition curve. As a reminder, the inhibition is the drop in the measured response relative to a control, in per cent.
